From ChEMBL document CHEMBL1122826, “4-[2-(Di-n-propylamino)ethyl]-2(3H)-indolone: a prejunctional dopamine receptor agonist” (J Med Chem, 1985)

Molecular target: Dopamine receptor
Assay: Inhibitory activity against constrictor response to electrical stimulation in the isolated perfused rabbit ear artery(REA) expressing dopamine receptor
Parameters: species or system Oryctolagus cuniculus

SMILES | EC50 [nM]
CCCN(CCC)CCc1cccc(NC(C)=O)c1 | > 1000
CCCN(CCC)CCc1cccc(O)c1 | 700
